Reference: ChEMBL document CHEMBL1201862, “PubChem BioAssay data set” (2004)
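Method: 48-hour compound exposure of cells in 96-well plates, five concentrations, linear interpolation of endpoints. At the GI50, growth is halved.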 Activity calls are given as the source filed them. No stated cut-off is given here; in the data, active = GI50 up to about 1.1 µM and inactive = higher.

Experiments:
Test in all cases: inhibition of tumour cell growth, NCI panel, 48 h
Malme-3M = tested on: Malme-3M
NCI-H23 = tested on: NCI-H23
SW-620 = tested on: SW-620
PC-3 = tested on: PC-3
K562 = tested on: K562
HCT-15 = tested on: HCT-15
OVCAR-5 = tested on: OVCAR-5
BT-549 = tested on: BT-549
SN12C = tested on: SN12C
A549 = tested on: A549
MDA-MB-435 = tested on: MDA-MB-435
SK-OV-3 = tested on: SK-OV-3
Hs-578T = tested on: Hs-578T
UACC-62 = tested on: UACC-62
SF-539 = tested on: SF-539
M14 = tested on: M14
RPMI-8226 = tested on: RPMI-8226
IGROV-1 = tested on: IGROV-1
HCC 2998 = tested on: HCC 2998
SR = tested on: SR
TK-10 = tested on: TK-10
MDA-N = tested on: MDA-N
ACHN = tested on: ACHN
SNB-75 = tested on: SNB-75
MDA-MB-231 = tested on: MDA-MB-231
OVCAR-8 = tested on: OVCAR-8
DU-145 = tested on: DU-145
UACC-257 = tested on: UACC-257
HOP-92 = tested on: HOP-92
CAKI-1 = tested on: CAKI-1
UO-31 = tested on: UO-31
RXF 393 = tested on: RXF 393
KM12 = tested on: KM12
OVCAR-3 = tested on: OVCAR-3
OVCAR-4 = tested on: OVCAR-4
MOLT-4 = tested on: MOLT-4
CCRF-CEM = tested on: CCRF-CEM
HT-29 = tested on: HT-29
NCI-H522 = tested on: NCI-H522
NCI-H460 = tested on: NCI-H460
U-251 = tested on: U-251
SF-268 = tested on: SF-268
SK-MEL-2 = tested on: SK-MEL-2
T47D = tested on: T47D
SK-MEL-5 = tested on: SK-MEL-5
SK-MEL-28 = tested on: SK-MEL-28
786-0 = tested on: 786-0
NCI-H226 = tested on: NCI-H226
HCT-116 = tested on: HCT-116
COLO 205 = tested on: COLO 205
HOP-62 = tested on: HOP-62
SF-295 = tested on: SF-295
SNB-19 = tested on: SNB-19
NCI/ADR-RES = tested on: NCI/ADR-RES
HL-60 = tested on: HL-60
LOX IMVI = tested on: LOX IMVI
EKVX = tested on: EKVX
A498 = tested on: A498
MCF7 = tested on: MCF7

Structure (SMILES): COc1ccccc1NC(=S)NNC(=O)c1cc(-c2ccccc2)nc2ccccc12
- GI50 (Malme-3M): 4.69 µM (inactive)
- GI50 (NCI-H23): 13.9 µM (inactive)
- GI50 (SW-620): 7.76 µM (inactive)
- GI50 (PC-3): 10.3 µM (inactive)
- GI50 (K562): 6.97 µM (inactive)
- GI50 (HCT-15): 4.11 µM
- GI50 (OVCAR-5): 16.4 µM (inactive)
- GI50 (BT-549): 8.26 µM (inactive)
- GI50 (SN12C): 14.7 µM (inactive)
- GI50 (A549): 8.55 µM (inactive)
- GI50 (MDA-MB-435): 3.18 µM (inactive)
- GI50 (SK-OV-3): 16.9 µM (inactive)
- GI50 (Hs-578T): 16.6 µM (inactive)
- GI50 (UACC-62): 5.86 µM (inactive)
- GI50 (SF-539): 11.5 µM (inactive)
- GI50 (M14): 11.9 µM (inactive)
- GI50 (RPMI-8226): 6.97 µM (inactive)
- GI50 (IGROV-1): 13.9 µM (inactive)
- GI50 (HCC 2998): 13.6 µM (inactive)
- GI50 (SR): 1.74 µM (inactive)
- GI50 (TK-10): 26.5 µM (inactive)
- GI50 (MDA-N): 3.35 µM (inactive)
- GI50 (ACHN): 17.7 µM (inactive)
- GI50 (SNB-75): 18.7 µM (inactive)
- GI50 (MDA-MB-231): 10 µM (inactive)
- GI50 (OVCAR-8): 18 µM (inactive)
- GI50 (DU-145): 12.4 µM (inactive)
- GI50 (UACC-257): 18.2 µM (inactive)
- GI50 (HOP-92): 12.8 µM (inactive)
- GI50 (CAKI-1): 10.7 µM (inactive)
- GI50 (UO-31): 11 µM (inactive)
- GI50 (RXF 393): 3.27 µM (inactive)
- GI50 (KM12): 7.01 µM (inactive)
- GI50 (OVCAR-3): 4.45 µM (inactive)
- GI50 (OVCAR-4): 14.7 µM (inactive)
- GI50 (MOLT-4): 4.3 µM (inactive)
- GI50 (CCRF-CEM): 2.08 µM (inactive)
- GI50 (HT-29): 21.9 µM (inactive)
- GI50 (NCI-H522): 12.9 µM (inactive)
- GI50 (NCI-H460): 13.2 µM (inactive)
- GI50 (U-251): 9.59 µM (inactive)
- GI50 (SF-268): 17.5 µM (inactive)
- GI50 (SK-MEL-2): 10.4 µM (inactive)
- GI50 (T47D): 15.9 µM (inactive)
- GI50 (SK-MEL-5): 5.81 µM (inactive)
- GI50 (SK-MEL-28): 10.4 µM (inactive)
- GI50 (786-0): 13.2 µM (inactive)
- GI50 (NCI-H226): 17.3 µM (inactive)
- GI50 (HCT-116): 6.22 µM (inactive)
- GI50 (COLO 205): 11.8 µM (inactive)
- GI50 (HOP-62): 11.7 µM (inactive)
- GI50 (SF-295): 4.38 µM (inactive)
- GI50 (SNB-19): 24.5 µM (inactive)
- GI50 (NCI/ADR-RES): 12.8 µM (inactive)

Structure (SMILES): CCc1nnc2sc(-c3ccc(-c4ccc(Cl)cc4Cl)o3)nn12
- GI50 (Malme-3M): > 100 µM (inactive)
- GI50 (NCI-H23): 76.4 µM (inactive)
- GI50 (SW-620): > 100 µM (inactive)
- GI50 (PC-3): 30.1 µM (inactive)
- GI50 (K562): 47.2 µM (inactive)
- GI50 (HCT-15): 61.7 µM
- GI50 (HL-60): 27 µM (inactive)
- GI50 (OVCAR-5): > 100 µM (inactive)
- GI50 (BT-549): 50 µM (inactive)
- GI50 (SN12C): 60.7 µM (inactive)
- GI50 (A549): 73.5 µM (inactive)
- GI50 (MDA-MB-435): > 100 µM (inactive)
- GI50 (SK-OV-3): 43.1 µM (inactive)
- GI50 (Hs-578T): 74.8 µM (inactive)
- GI50 (M14): > 100 µM (inactive)
- GI50 (RPMI-8226): 29.2 µM (inactive)
- GI50 (IGROV-1): > 100 µM (inactive)
- GI50 (SR): 40.3 µM (inactive)
- GI50 (TK-10): 43.7 µM (inactive)
- GI50 (MDA-N): 66.5 µM (inactive)
- GI50 (ACHN): 82 µM (inactive)
- GI50 (SNB-75): 21.3 µM (inactive)
- GI50 (MDA-MB-231): 35 µM (inactive)
- GI50 (OVCAR-8): 71 µM (inactive)
- GI50 (DU-145): 72.3 µM (inactive)
- GI50 (UACC-257): 43.9 µM (inactive)
- GI50 (HOP-92): 21.4 µM (inactive)
- GI50 (CAKI-1): 96.6 µM (inactive)
- GI50 (UO-31): 67.8 µM (inactive)
- GI50 (RXF 393): 3.79 µM (inactive)
- GI50 (KM12): > 100 µM (inactive)
- GI50 (LOX IMVI): 74.1 µM (inactive)
- GI50 (OVCAR-3): 40.6 µM (inactive)
- GI50 (EKVX): 54.8 µM (inactive)
- GI50 (OVCAR-4): 84.7 µM (inactive)
- GI50 (MOLT-4): 44.1 µM (inactive)
- GI50 (CCRF-CEM): 37.3 µM (inactive)
- GI50 (HT-29): 96.2 µM (inactive)
- GI50 (NCI-H522): 52.4 µM (inactive)
- GI50 (NCI-H460): 67 µM (inactive)
- GI50 (U-251): 37.3 µM (inactive)
- GI50 (SF-268): 61.2 µM (inactive)
- GI50 (SK-MEL-2): 58.7 µM (inactive)
- GI50 (T47D): 18 µM (inactive)
- GI50 (SK-MEL-5): 34.2 µM (inactive)
- GI50 (SK-MEL-28): > 100 µM (inactive)
- GI50 (786-0): 32.9 µM (inactive)
- GI50 (NCI-H226): 50.6 µM (inactive)
- GI50 (HCT-116): 62.5 µM (inactive)
- GI50 (A498): 30.3 µM (inactive)
- GI50 (COLO 205): 23.1 µM (inactive)
- GI50 (HOP-62): 61.9 µM (inactive)
- GI50 (SF-295): 43.1 µM (inactive)
- GI50 (SNB-19): > 100 µM (inactive)
- GI50 (NCI/ADR-RES): 50.2 µM (inactive)

Structure (SMILES): O=C(CCCn1cnc([N+](=O)[O-])n1)NCCn1ccnc1[N+](=O)[O-]
- GI50 (NCI-H23): > 100 µM (inactive)
- GI50 (SW-620): > 100 µM (inactive)
- GI50 (PC-3): > 100 µM (inactive)
- GI50 (K562): > 100 µM (inactive)
- GI50 (HCT-15): > 100 µM
- GI50 (HL-60): > 100 µM (inactive)
- GI50 (OVCAR-5): > 100 µM (inactive)
- GI50 (BT-549): > 100 µM (inactive)
- GI50 (A549): > 100 µM (inactive)
- GI50 (SK-OV-3): > 100 µM (inactive)
- GI50 (Hs-578T): > 100 µM (inactive)
- GI50 (UACC-62): > 100 µM (inactive)
- GI50 (M14): > 100 µM (inactive)
- GI50 (RPMI-8226): > 100 µM (inactive)
- GI50 (IGROV-1): > 100 µM (inactive)
- GI50 (SR): > 100 µM (inactive)
- GI50 (TK-10): > 100 µM (inactive)
- GI50 (MCF7): > 100 µM (inactive)
- GI50 (MDA-N): > 100 µM (inactive)
- GI50 (ACHN): > 100 µM (inactive)
- GI50 (SNB-75): > 100 µM (inactive)
- GI50 (DU-145): > 100 µM (inactive)
- GI50 (UACC-257): > 100 µM (inactive)
- GI50 (HOP-92): 61.7 µM (inactive)
- GI50 (CAKI-1): > 100 µM (inactive)
- GI50 (UO-31): > 100 µM (inactive)
- GI50 (RXF 393): > 100 µM (inactive)
- GI50 (KM12): > 100 µM (inactive)
- GI50 (LOX IMVI): > 100 µM (inactive)
- GI50 (OVCAR-3): > 100 µM (inactive)
- GI50 (EKVX): > 100 µM (inactive)
- GI50 (OVCAR-4): > 100 µM (inactive)
- GI50 (MOLT-4): > 100 µM (inactive)
- GI50 (CCRF-CEM): > 100 µM (inactive)
- GI50 (HT-29): > 100 µM (inactive)
- GI50 (NCI-H522): > 100 µM (inactive)
- GI50 (NCI-H460): > 100 µM (inactive)
- GI50 (U-251): > 100 µM (inactive)
- GI50 (SF-268): > 100 µM (inactive)
- GI50 (SK-MEL-2): > 100 µM (inactive)
- GI50 (T47D): > 100 µM (inactive)
- GI50 (SK-MEL-5): > 100 µM (inactive)
- GI50 (SK-MEL-28): > 100 µM (inactive)
- GI50 (NCI-H226): > 100 µM (inactive)
- GI50 (COLO 205): > 100 µM (inactive)
- GI50 (HOP-62): > 100 µM (inactive)
- GI50 (SF-295): > 100 µM (inactive)
